Results as given in article PMC5858870 (Environmental pollution (Barking, Essex : 1987), 2018).
Read-outs that look alike come from different tables or passages of the source.

How the values were obtained:
[1] = tested on: rainbow trout; conditions: relatively low concentrations in the range of ng/mL; ref Ashfield et al., 1998; cited from earlier work
[2] = for Whole-body conc D 50 High / Whole-body conc D 50 Med: day 50 (after depuration), wet weight, < = reporting limit; for Whole-body conc D 50 Med: medium dose
[3] = tested on: male fathead minnow; conditions: exposed to 40,000 ng/L (40 ng/mL); ref Niemuth and Klaper, 2015; cited from earlier work
[4] = Apparent half-life during depuration phase; conditions: whole-body, apparent first order
[5] = tested on: carp; conditions: carp (Catla catla) exposed; ref Muthuviveganandavel et al., 2013; cited from earlier work
[6] = tested on: fish; conditions: ref Kim et al. (2007); cited from earlier work
[7] = tested on: mitochondrial respiration; conditions: ref Schnellmann et al., 1990; Shim et al., 2016; cited from earlier work
[8] = in vivo; cited from earlier work
[9] = day 32, high dose, nominal ratio 10×
[10] = day 32, low dose, nominal ratio 0.3×
[11] = day 32, medium dose, nominal ratio 1×
[12] = Chinook salmon (Oncorhynchus tshawytscha), juvenile, in vivo, 32 d
[13] = Chinook salmon (Oncorhynchus tshawytscha), juvenile, in vivo, 50 d

| Compound | WB conc. factor (lab / field) D 32 High [2, 9] | WB conc. factor (lab / field) D 32 Low [2, 10] | WB conc. factor (lab / field) D 32 Med [2, 11] | WB conc. factor (lab / field) D 50 Med ([2]; day 50, medium dose) | further results |
| --- | --- | --- | --- | --- | --- |
| nonylphenol diethoxylate |  |  |  |  | Growth in rainbow trout [1]: inhibited growth |
| O=C(O)C(F)(F)C(F)(F)C(F)(F)C(F)(F)C(F)(F)F [PFHxA] |  |  |  |  | Whole-body conc D 50 High [2]: 0.82 ng/g; Whole-body conc D 50 Med [2]: 0.49 ng/g |
| Cc1ccc(C)c(OCCCC(C)(C)C(=O)O)c1 [Gemfibrozil, reference compound] | 2.57 |  |  |  |  |
| CN[C@H]1CC[C@@H](c2ccc(Cl)c(Cl)c2)c2ccccc21 [Sertraline, reference compound] | 0.53 |  |  |  |  |
| CNCCN1C(=O)[C@H](OC(C)=O)[C@H](c2ccc(OC)cc2)Sc2ccccc21 [Desmethyl-diltiazem] | 108 | 4.67 | 9.00 | 9.6 | Whole-body conc D 50 High [2]: 119 ng/g; Whole-body conc D 50 Med [2]: 14.4 ng/g |
| nonylphenol |  |  |  |  | Growth in rainbow trout [1]: inhibited growth |
| O=C(Nc1ccc(Cl)cc1)Nc1ccc(Cl)c(Cl)c1 [Triclocarban] | 1.34 |  |  |  |  |
| CN(C)C(=N)N=C(N)N [Metformin, reference compound] | 1.42 | 0.16 |  |  | Growth in male fathead minnow [3]: reduced growth |
| O=C(O)C(F)(F)C(F)(F)C(F)(F)C(F)(F)C(F)(F)C(F)(F)C(F)(F)C(F)(F)C(F)(F)F [PFDA] | 39.9 | 1.68 | 2.76 | 2.63 | Whole-body conc D 50 High [2]: 14.4 ng/g; Whole-body conc D 50 Med [2]: 2.05 ng/g; Half life High [4]: 16.2 days; Half life Med ([4]; medium dose): 262 days |
| CCOC(=O)C1=C(COCCN)NC(C)=C(C(=O)OC)C1c1ccccc1Cl (centres unmarked) [Amlodipine, reference compound] | 19.5 | 1.15 | 1.12 |  |  |
| Clc1ccc(COC(Cn2ccnc2)c2ccc(Cl)cc2Cl)c(Cl)c1 (centres unmarked) [Miconazole, reference compound] | 7.39 | 0.64 |  |  |  |
| CC1(C)C(C=C(Cl)Cl)C1C(=O)OC(C#N)c1cccc(Oc2ccccc2)c1 (centres unmarked) [cypermethrin] |  |  |  |  | Plasma enzymes ALT, AMYL, and acid phosphatase [5]: large reductions |
| CNCCC(Oc1ccc(C(F)(F)F)cc1)c1ccccc1 (centres unmarked) [Fluoxetine, reference compound] | 4.00 | 0.29 | 0.21 | 0.19 |  |
| NCCC(Oc1ccc(C(F)(F)F)cc1)c1ccccc1 (centres unmarked) [Norfluoxetine] | 5.59 | 0.31 | 0.38 | 0.52 |  |
| CN(C)CCOC(c1ccccc1)c1ccccc1 [Diphen hydramine, reference compound] | 5.37 | 0.67 | 0.43 |  |  |
| COc1ccc([C@@H]2Sc3ccccc3N(CCN(C)C)C(=O)[C@@H]2OC(C)=O)cc1 [Diltiazem, reference compound] | 63.8 | 10.7 | 6.56 | 2.37 | 96h LC50 [6]: 15 µg/mL |
| Oc1cc(Cl)ccc1Oc1ccc(Cl)cc1Cl [Triclosan] |  |  |  |  | Uncoupling of mitochondrial respiration [7]: known uncouplers of mitochondrial respiration |
| CC[C@H]1OC(=O)[C@H](C)[C@@H](O[C@H]2C[C@@](C)(OC)[C@@H](O)[C@H](C)O2)[C@H](C)[C@@H](O[C@@H]2O[C@H](C)C[C@H](N(C)C)[C@H]2O)[C@](C)(O)C[C@@H](C)CN(C)[C@H](C)[C@@H](O)[C@]1(C)O [Azithromycin, reference compound] | 17.1 | 1.67 | 1.03 | 1.42 |  |
| O=S(=O)(O)C(F)(F)C(F)(F)C(F)(F)C(F)(F)C(F)(F)C(F)(F)C(F)(F)C(F)(F)F [PFOS] | 4.01 | 0.17 | 0.22 | 0.34 | Whole-body conc D 50 High [2]: 123 ng/g; Whole-body conc D 50 Med [2]: 11.6 ng/g; Half life High [4]: 134 days |
| NS(=O)(=O)C(F)(F)C(F)(F)C(F)(F)C(F)(F)C(F)(F)C(F)(F)C(F)(F)C(F)(F)F [PFOSA] |  |  |  |  | Uncoupling of mitochondrial respiration [7]: known uncouplers of mitochondrial respiration; WB conc. factor (lab / field) D 32 High [2, 12]: 85.9; WB conc. factor (lab / field) D 32 Low [2, 12]: 2.74; WB conc. factor (lab / field) D 32 Med [2, 12]: 4.15; WB conc. factor (lab / field) D 50 High [2, 13]: 55.9; WB conc. factor (lab / field) D 50 Med [2, 13]: 7.0; Max WB conc field Scul [8]: 2.2 ng/g |
| octylphenol |  |  |  |  | Growth in rainbow trout [1]: inhibited growth |
| CN(C)CCC=C1c2ccccc2CCc2ccccc21 [Amitriptyline, reference compound] | 1.41 | 0.19 |  |  |  |
